Test results taken from ChEMBL document CHEMBL1201862, “PubChem BioAssay data set” (2004).
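Compound exposure: 48 hours, 5 concentrations, 96-well plates. GI50 is the concentration that inhibits growth by half.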 The source made the active and inactive calls. Cut-off read from the data, not from the text of the source: active = GI50 up to about 1.1 µM and inactive = higher.

Columns and labels:
Experiment in all cases: DTP human tumour cell line panel, 48 h
RPMI-8226 = system: RPMI-8226
EKVX = system: EKVX
SK-OV-3 = system: SK-OV-3
M14 = system: M14
T47D = system: T47D
U-251 = system: U-251
IGROV-1 = system: IGROV-1
A498 = system: A498
OVCAR-8 = system: OVCAR-8
DU-145 = system: DU-145
OVCAR-5 = system: OVCAR-5
CAKI-1 = system: CAKI-1
MDA-MB-435 = system: MDA-MB-435
SF-268 = system: SF-268
SNB-75 = system: SNB-75
NCI-H23 = system: NCI-H23
HOP-62 = system: HOP-62
NCI-H522 = system: NCI-H522
SK-MEL-2 = system: SK-MEL-2
LOX IMVI = system: LOX IMVI

Row | SMILES | GI50 (RPMI-8226) | GI50 (EKVX) | GI50 (SK-OV-3) | GI50 (M14) | GI50 (T47D) | GI50 (U-251) | GI50 (IGROV-1) | GI50 (A498) | GI50 (OVCAR-8) | GI50 (DU-145) | GI50 (OVCAR-5) | GI50 (CAKI-1) | GI50 (MDA-MB-435) | GI50 (SF-268) | GI50 (SNB-75) | GI50 (NCI-H23) | GI50 (HOP-62) | GI50 (NCI-H522) | GI50 (SK-MEL-2) | GI50 (LOX IMVI)
1 | O=C(O)C[S+]([O-])c1ccc2c3c(cccc13)C(=O)c1ccccc1-2 (stereo not drawn) | > 100 µM (inactive) | 55.1 µM (inactive) | > 100 µM (inactive) | > 100 µM (inactive) | > 100 µM (inactive) | > 100 µM (inactive) | > 100 µM (inactive) | > 100 µM (inactive) | > 100 µM (inactive) | > 100 µM (inactive) | > 100 µM (inactive) | > 100 µM (inactive) | > 100 µM (inactive) | > 100 µM (inactive) | > 100 µM (inactive) | > 100 µM (inactive) | > 100 µM (inactive) | > 100 µM (inactive) | > 100 µM (inactive) | > 100 µM (inactive)
2 | COc1ccc(C2=Nn3c(nc4sc(-c5ccccc5)cc4c3=O)SC2)cc1 | > 100 µM (inactive) | > 100 µM (inactive) | > 100 µM (inactive) |  | > 100 µM (inactive) | > 100 µM (inactive) | > 100 µM (inactive) | > 100 µM (inactive) | > 100 µM (inactive) | > 100 µM (inactive) | > 100 µM (inactive) | > 100 µM (inactive) | > 100 µM (inactive) | > 100 µM (inactive) |  | > 100 µM (inactive) | 54.8 µM (inactive) | > 100 µM (inactive) |  | > 100 µM (inactive)
3 | CC(=O)c1cccn1/C=C(\OC(=O)OC(C)(C)C)c1ccc[nH]1 | 59 µM (inactive) | 25.5 µM (inactive) |  | 76.4 µM (inactive) | 33 µM (inactive) | 64.4 µM (inactive) | 40.6 µM (inactive) | 34.8 µM (inactive) | 99.5 µM (inactive) | 58.9 µM (inactive) | 51.2 µM (inactive) | 22 µM (inactive) | > 100 µM (inactive) | 77.3 µM (inactive) | 8.24 µM (inactive) | 69.8 µM (inactive) | 77.3 µM (inactive) | 57 µM (inactive) | > 100 µM (inactive) | 62.4 µM (inactive)
4 | CN1C(=O)c2ccccc2NC(=O)C12O[C@@H]2c1ccccc1 (stereo partly drawn) | > 100 µM (inactive) | > 100 µM (inactive) |  | > 100 µM (inactive) | > 100 µM (inactive) | > 100 µM (inactive) | > 100 µM (inactive) | > 100 µM (inactive) | > 100 µM (inactive) | > 100 µM (inactive) | > 100 µM (inactive) | 75.2 µM (inactive) | > 100 µM (inactive) | > 100 µM (inactive) | 62.8 µM (inactive) | > 100 µM (inactive) | > 100 µM (inactive) | > 100 µM (inactive) | > 100 µM (inactive) | > 100 µM (inactive)
5 | CC(C)CC(NC=O)C(=O)NC(Cc1ccccc1)NC(=O)CNC(=O)C(C)NC(=O)OC(C)(C)C (stereo not drawn) | > 100 µM (inactive) | > 100 µM (inactive) | > 100 µM (inactive) | > 100 µM (inactive) | > 100 µM (inactive) | > 100 µM (inactive) | > 100 µM (inactive) | 21.9 µM (inactive) | > 100 µM (inactive) | > 100 µM (inactive) | > 100 µM (inactive) | > 100 µM (inactive) | > 100 µM (inactive) | > 100 µM (inactive) | > 100 µM (inactive) | > 100 µM (inactive) | > 100 µM (inactive) | > 100 µM (inactive) |  | > 100 µM (inactive)
6 | N#Cc1ncc(C(Cl)Cl)nc1Cl |  | 1.75 µM (inactive) | 3.78 µM (inactive) | 1.13 µM (inactive) | 1.76 µM (inactive) | 1.97 µM (inactive) | 2.09 µM (inactive) | > 10 µM (inactive) | 2.15 µM (inactive) | 8.67 µM (inactive) | 1.95 µM (inactive) | 1.4 µM (inactive) | 1.76 µM (inactive) | 2.43 µM (inactive) | 2.29 µM (inactive) | 2.12 µM (inactive) | 3.07 µM (inactive) | 0.502 µM (active) | 1.91 µM (inactive) | 1.44 µM (inactive)
7 | CCOC(=O)Nc1nn(C)/c(=N/Cc2ccccc2)s1 | > 100 µM (inactive) | > 100 µM (inactive) | > 100 µM (inactive) |  | > 100 µM (inactive) | > 100 µM (inactive) | > 100 µM (inactive) | > 100 µM (inactive) |  | > 100 µM (inactive) | > 100 µM (inactive) | > 100 µM (inactive) | > 100 µM (inactive) |  | > 100 µM (inactive) |  | > 100 µM (inactive) | 86.3 µM (inactive) | > 100 µM (inactive) | > 100 µM (inactive)
8 | C=Cc1ccccc1C1(O)C=CC(OC)(OC)C=C1 | 6.41 µM (inactive) | 14.7 µM (inactive) | 13.9 µM (inactive) | 5.96 µM (inactive) | 22.2 µM (inactive) | 3.66 µM (inactive) | 13.4 µM (inactive) | 23.2 µM (inactive) | 2.06 µM (inactive) | 20.4 µM (inactive) | 6.93 µM (inactive) | 5.68 µM (inactive) | 4.36 µM (inactive) | 9.62 µM (inactive) | 18.8 µM (inactive) | 4.46 µM (inactive) | 6.31 µM (inactive) | 7.26 µM (inactive) | 17.3 µM (inactive) | 
9 | C=CC(C)(C)N[C@@H](C(=O)N1CCC[C@H]1c1nc(-c2nc(C(=O)OCC=C(C)C)c(C)o2)c(C)o1)C(C)C | 18.7 µM (inactive) | 32.3 µM (inactive) | 27.1 µM (inactive) | 29 µM (inactive) | 21.3 µM (inactive) | 21.1 µM (inactive) | 28.8 µM (inactive) | 19.7 µM (inactive) | 23.4 µM (inactive) | 17.2 µM (inactive) | 35.9 µM (inactive) | 35.5 µM (inactive) | 18.5 µM (inactive) | 20.9 µM (inactive) | 33.8 µM (inactive) | 21.8 µM (inactive) | 21.6 µM (inactive) | 16.9 µM (inactive) | 34 µM (inactive) | 30.6 µM (inactive)
10 | COc1ccc(C2C(C(=O)c3ccccc3)=C(O)C(O)(CC(=O)c3ccccc3)N2c2ccc(OC)cc2)cc1 (stereo not drawn) | 5.04 µM (inactive) | 24.6 µM (inactive) | 25.2 µM (inactive) | 31.2 µM (inactive) | 18.5 µM (inactive) | 8.09 µM (inactive) | 21.9 µM (inactive) | 44.6 µM (inactive) | 10.4 µM (inactive) | 38.4 µM (inactive) | 23.6 µM (inactive) | 24.5 µM (inactive) | 18.6 µM (inactive) | 33.7 µM (inactive) | 34.1 µM (inactive) | 21.1 µM (inactive) | 18.8 µM (inactive) | 4.35 µM (inactive) | 16.1 µM (inactive) | 15.2 µM (inactive)
11 | O=c1/c(=C/c2ccc(-c3ccc(Cl)cc3Cl)o2)sc2n1[C@@H](c1ccc(Cl)cc1)C=C(c1cc(F)c(Cl)cc1Cl)N=2 | 31.1 µM (inactive) |  | 19.2 µM (inactive) | > 100 µM (inactive) | 19.2 µM (inactive) | 31.5 µM (inactive) | 33 µM (inactive) | 2.05 µM (inactive) | 45.7 µM (inactive) | 65.2 µM (inactive) | > 100 µM (inactive) | > 100 µM (inactive) | 54.3 µM (inactive) | 36.1 µM (inactive) | 63.4 µM (inactive) | 36.6 µM (inactive) | 10.6 µM (inactive) | 84.3 µM (inactive) | 40.5 µM (inactive) | 57.9 µM (inactive)
12 | CC[C@@]1(O)C(=O)OCc2c1cc1n(c2=O)Cc2c-1nc1ccccc1c2/C=N\NC(=O)C(N)Cc1ccc(O)cc1 (stereo partly drawn) | 0.867 µM (active) | 2.57 µM (inactive) | 0.869 µM (active) | 0.587 µM (active) | 0.285 µM (active) | 0.248 µM (active) | 2.52 µM (inactive) | 0.813 µM (active) | 0.809 µM (active) | 0.331 µM (active) |  | 0.315 µM (active) | 1.61 µM (inactive) | 0.202 µM (active) | 0.415 µM (active) | 0.233 µM (active) | 0.248 µM (active) | 0.998 µM (active) |  | 0.189 µM (active)
13 | CC(C)C1=C2CCC3(C)C(CCC4C5C6OCC5(CCC6(C)C)CCC43C)C2(C)CC1 (stereo not drawn) | 13.6 µM (inactive) | 19.1 µM (inactive) | 58.1 µM (inactive) | 17.4 µM (inactive) | 27 µM (inactive) | 19.1 µM (inactive) | 13.1 µM (inactive) | 20.4 µM (inactive) | 17.7 µM (inactive) | 20.2 µM (inactive) | 33 µM (inactive) | 20 µM (inactive) | 17.4 µM (inactive) | 28.8 µM (inactive) |  | 21.3 µM (inactive) | 18.1 µM (inactive) | 18.8 µM (inactive) | 29.6 µM (inactive) | 14.4 µM (inactive)
14 | CCCCCCC(O)C(O)CCC(O)C1CCC(CCCCC(O)CC2=CC(C)OC2=O)O1 (stereo not drawn) [ACETOGENINS] | 7.41 µM (inactive) | 1.92 µM (inactive) |  | 3.15 µM (inactive) | 3.13 µM (inactive) | 3.54 µM (inactive) | 2.95 µM (inactive) | 17.5 µM (inactive) | 2.18 µM (inactive) | 6.19 µM (inactive) | 8.3 µM (inactive) | 2.2 µM (inactive) | 17.4 µM (inactive) | 2.06 µM (inactive) | 2.69 µM (inactive) | 0.161 µM (active) | 3.81 µM (inactive) | 7.71 µM (inactive) | 2.99 µM (inactive) | 1.39 µM (inactive)
